{
  "source": "paper PMC11775380",
  "about": "“Discovery of Novel Nav1.7-Selective Inhibitors with the 1H-Indole-3-Propionamide Scaffold for Effective Pain Relief” (Research, 2025)",
  "assay_type_in_all_cases": "cell-based",
  "key": {"human Nav1.7 (hNav1.7)": {"target": "T1, human Nav1.7 (hNav1.7) (Homo sapiens, UniProt Q15858)", "T1 construct": "expressed in transfected cells; host or cells: HEK293T", "T1 sequence (Q15858 whole entry)": "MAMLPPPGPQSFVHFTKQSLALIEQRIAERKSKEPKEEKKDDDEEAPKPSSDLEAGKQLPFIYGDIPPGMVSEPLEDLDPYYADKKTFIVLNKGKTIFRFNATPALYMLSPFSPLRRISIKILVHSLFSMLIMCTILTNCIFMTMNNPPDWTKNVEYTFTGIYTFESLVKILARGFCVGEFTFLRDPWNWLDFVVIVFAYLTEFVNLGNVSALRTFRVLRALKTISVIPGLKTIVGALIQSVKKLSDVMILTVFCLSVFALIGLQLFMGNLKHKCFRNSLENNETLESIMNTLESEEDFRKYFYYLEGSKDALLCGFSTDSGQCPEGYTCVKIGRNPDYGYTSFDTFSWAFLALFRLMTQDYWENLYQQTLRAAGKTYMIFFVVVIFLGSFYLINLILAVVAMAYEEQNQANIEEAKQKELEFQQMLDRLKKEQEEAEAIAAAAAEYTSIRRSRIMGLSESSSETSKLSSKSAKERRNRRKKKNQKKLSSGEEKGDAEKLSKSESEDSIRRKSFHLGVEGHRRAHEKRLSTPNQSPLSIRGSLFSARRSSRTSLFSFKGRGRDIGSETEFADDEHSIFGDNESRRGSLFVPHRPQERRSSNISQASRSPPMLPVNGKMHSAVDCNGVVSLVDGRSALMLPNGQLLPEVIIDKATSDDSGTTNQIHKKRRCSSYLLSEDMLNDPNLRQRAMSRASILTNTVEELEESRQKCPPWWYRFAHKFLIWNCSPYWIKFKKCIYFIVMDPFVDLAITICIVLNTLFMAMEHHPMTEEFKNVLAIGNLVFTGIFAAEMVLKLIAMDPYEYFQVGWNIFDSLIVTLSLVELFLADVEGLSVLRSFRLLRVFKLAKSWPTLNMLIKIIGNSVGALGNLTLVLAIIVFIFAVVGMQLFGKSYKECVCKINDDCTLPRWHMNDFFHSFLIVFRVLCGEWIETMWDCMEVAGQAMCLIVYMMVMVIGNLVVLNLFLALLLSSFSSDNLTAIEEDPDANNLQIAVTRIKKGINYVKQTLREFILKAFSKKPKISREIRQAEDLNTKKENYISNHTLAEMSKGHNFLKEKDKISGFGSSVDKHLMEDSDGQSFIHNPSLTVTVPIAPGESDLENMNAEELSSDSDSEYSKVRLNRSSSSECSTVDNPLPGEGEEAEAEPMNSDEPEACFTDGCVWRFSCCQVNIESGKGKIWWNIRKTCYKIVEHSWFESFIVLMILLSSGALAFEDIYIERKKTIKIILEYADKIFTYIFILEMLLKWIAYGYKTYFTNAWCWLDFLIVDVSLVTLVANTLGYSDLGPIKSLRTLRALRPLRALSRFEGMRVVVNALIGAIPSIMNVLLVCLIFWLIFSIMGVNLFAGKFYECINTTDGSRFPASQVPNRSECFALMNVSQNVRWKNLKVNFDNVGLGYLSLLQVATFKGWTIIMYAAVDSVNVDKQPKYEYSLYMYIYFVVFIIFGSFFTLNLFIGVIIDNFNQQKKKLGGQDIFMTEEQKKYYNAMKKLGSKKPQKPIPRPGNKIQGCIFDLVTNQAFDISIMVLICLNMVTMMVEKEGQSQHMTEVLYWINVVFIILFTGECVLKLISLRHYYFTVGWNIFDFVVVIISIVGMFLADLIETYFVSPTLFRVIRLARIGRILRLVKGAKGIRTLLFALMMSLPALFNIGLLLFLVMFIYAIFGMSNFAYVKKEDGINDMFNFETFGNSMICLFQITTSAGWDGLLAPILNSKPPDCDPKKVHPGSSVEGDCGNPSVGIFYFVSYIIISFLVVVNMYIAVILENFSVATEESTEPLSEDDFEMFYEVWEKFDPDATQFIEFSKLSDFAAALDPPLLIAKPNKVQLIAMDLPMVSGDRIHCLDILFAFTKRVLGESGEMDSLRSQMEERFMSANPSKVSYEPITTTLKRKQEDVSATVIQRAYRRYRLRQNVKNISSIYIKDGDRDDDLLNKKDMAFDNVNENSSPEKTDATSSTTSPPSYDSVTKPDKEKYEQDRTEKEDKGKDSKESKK", "T1 sequence (Q07699 19-218 partner)": "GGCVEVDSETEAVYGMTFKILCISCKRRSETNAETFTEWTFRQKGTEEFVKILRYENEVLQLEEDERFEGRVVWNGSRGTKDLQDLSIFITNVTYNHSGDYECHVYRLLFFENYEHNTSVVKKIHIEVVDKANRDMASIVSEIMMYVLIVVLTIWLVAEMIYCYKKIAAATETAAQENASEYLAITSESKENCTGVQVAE", "T1 sequence (O60939 30-215 partner)": "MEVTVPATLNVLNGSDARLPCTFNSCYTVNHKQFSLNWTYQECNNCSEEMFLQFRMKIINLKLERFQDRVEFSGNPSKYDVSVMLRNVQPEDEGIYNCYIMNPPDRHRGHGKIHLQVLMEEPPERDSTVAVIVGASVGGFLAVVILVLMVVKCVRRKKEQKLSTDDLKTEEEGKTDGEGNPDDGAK", "test": "Whole-cell patch-clamp inhibition of Nav1.7 currents in transfected HEK293T cells", "description": "(§1) Human embryonic kidney (HEK) 293T (ATCC CRL-3216) and ND7/23 cells (National Collection of Authenticated Cell Cultures SCSP-5026) were cultured under standard conditions (5% CO2, 37 °C) in Dulbecco’s modified Eagle’s medium (DMEM) containing 10% fetal bovine serum and 1% penicillin-streptomycin solution(all from Gibco, Thermo Fisher Scientific, Waltham, MA, USA). When the cells reached 70% to 90% confluence, human Nav1.2 (hNav1.2), human Nav1.3 (hNav1.3), human Nav1.4 (hNav1.4), human Nav1.5 (hNav1.5), and mouse Nav1.6 (mNav1.6) channel plasmids were cotransfected with enhanced green fluorescent protein (eGFP) into HEK293T cells. Additionally, plasmids expressing β1 and β2 subunits tagged with eGFP were cotransfected with the human Nav1.7 (hNav1.7) channel into HEK293T cells. Human Nav1.8 (hNav1.8) was transiently transfected into ND7/23 cells, along with eGFP, using Lipofectamine 2000 (Invitrogen), adhering strictly to the manufacturer’s protocol. For manual patch-clamp experiments, the cells were plated onto glass coverslips and used within 20 to 48 h of transfection.\n(§2) Whole-cell patch-clamp recordings were conducted at 25 ± 2 °C, utilizing an EPC 10USB patch-clamp amplifier (HEKA Elektronik, Lambrecht, Germany). Pipettes, with access resistance between 2.0 and 3.0 MΩ, were pulled from borosilicate glass capillary tubes using a 2-step vertical microelectrode puller (PC-10, Narishige Group, Tokyo, Japan). Voltage-clamp recordings were obtained with PatchMaster software v2 × 73 (HEKA Elektronik) 5 min after establishing whole-cell configuration, sampled at 20 kHz, and filtered at 5 kHz. To minimize voltage errors, 80% series resistance compensation was applied. Pipettes were filled with 140 mM CsF, 10 mM NaCl, 1 mM EGTA, and 10 mM HEPES (pH=7.4, adjusted with CsOH). The external solution contained 140 mM NaCl, 2 mM CaCl2, 1 mM MgCl2, 5 mM KCl, 10 mM HEPES, and 10 mM glucose (pH=7.4, adjusted with NaOH). IC50 values were determined in HEK293T or ND7/23 cell lines by voltage clamping at −80 mV, followed by stepping to the V1/2 of inactivation for 8 s to facilitate compound binding."}, "hNav1.2": {"target": "T2, hNav1.2 (Homo sapiens, UniProt Q99250)", "T2 construct": "expressed in transfected cells; host or cells: HEK293T", "T2 sequence (Q99250 whole entry)": "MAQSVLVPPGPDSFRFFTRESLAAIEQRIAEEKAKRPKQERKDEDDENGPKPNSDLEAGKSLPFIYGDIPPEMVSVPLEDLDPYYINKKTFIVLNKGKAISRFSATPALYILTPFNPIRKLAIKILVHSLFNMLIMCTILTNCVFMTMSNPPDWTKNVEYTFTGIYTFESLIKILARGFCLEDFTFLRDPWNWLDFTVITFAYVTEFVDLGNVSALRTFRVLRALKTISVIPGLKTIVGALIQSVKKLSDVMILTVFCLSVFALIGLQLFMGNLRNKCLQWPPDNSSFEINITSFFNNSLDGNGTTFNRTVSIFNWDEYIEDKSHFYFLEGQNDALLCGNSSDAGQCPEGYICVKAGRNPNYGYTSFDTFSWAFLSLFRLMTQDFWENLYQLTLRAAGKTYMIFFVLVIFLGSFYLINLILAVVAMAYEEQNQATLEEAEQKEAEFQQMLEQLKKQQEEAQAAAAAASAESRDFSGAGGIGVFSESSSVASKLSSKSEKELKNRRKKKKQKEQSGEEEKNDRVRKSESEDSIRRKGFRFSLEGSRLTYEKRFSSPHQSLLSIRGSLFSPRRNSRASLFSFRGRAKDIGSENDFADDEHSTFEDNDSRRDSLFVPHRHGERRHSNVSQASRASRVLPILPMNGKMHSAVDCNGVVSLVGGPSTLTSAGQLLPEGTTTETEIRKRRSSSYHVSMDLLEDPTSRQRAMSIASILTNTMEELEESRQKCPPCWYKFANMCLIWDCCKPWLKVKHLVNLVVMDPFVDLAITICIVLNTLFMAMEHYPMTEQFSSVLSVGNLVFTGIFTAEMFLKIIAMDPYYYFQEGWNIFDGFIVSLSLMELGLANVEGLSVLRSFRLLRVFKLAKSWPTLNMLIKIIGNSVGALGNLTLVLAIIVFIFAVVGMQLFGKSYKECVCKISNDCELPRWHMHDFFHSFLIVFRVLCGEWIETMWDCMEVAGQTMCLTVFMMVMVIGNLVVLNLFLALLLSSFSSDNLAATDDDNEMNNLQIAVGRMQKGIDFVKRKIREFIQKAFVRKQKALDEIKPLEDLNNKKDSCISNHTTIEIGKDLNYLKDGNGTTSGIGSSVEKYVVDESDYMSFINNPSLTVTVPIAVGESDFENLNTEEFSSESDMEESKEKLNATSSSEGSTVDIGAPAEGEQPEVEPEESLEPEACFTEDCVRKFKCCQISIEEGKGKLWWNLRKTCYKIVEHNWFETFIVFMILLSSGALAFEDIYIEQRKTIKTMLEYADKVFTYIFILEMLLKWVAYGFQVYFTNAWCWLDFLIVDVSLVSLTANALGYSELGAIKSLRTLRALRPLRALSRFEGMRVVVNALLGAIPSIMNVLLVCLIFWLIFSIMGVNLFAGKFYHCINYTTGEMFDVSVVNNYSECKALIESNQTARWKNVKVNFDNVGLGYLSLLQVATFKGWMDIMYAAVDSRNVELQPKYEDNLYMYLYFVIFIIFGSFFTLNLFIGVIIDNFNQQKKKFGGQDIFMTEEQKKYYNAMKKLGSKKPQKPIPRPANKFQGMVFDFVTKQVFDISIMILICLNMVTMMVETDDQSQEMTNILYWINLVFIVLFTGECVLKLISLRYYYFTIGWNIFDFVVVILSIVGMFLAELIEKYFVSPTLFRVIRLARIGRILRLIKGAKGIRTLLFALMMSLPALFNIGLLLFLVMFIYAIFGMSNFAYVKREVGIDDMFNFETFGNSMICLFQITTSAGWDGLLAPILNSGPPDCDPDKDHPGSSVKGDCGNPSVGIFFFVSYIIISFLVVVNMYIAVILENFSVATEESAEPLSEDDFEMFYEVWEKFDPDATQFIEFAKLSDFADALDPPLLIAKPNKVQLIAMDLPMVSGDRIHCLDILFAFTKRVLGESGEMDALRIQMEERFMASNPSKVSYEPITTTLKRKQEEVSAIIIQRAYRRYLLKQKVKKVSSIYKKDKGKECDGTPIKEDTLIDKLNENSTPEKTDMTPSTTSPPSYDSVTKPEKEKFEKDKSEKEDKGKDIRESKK", "test": "Subtype selectivity, patch clamp", "conditions": "1 μM", "description": "(§3) VGSC inhibitors required credible subtype selectivity to void side effects caused by binding to nontarget subtypes. At a concentration of 1 μM, the inhibitory rates of WN2-R on hNav1.2, hNav1.3, hNav1.4, hNav1.5, mNav1.6, and hNav1.8 were determined (n = 3 to 6, Fig. 7A). […] To further evaluate the drug safety profile, high-dose acute toxicity experiments were conducted. Mice were administered a high dose of 30 mg/kg WN2-R through i.p. administration. The rotarod test, forced-swim test, and open field test were used to explore the effect of high-dose WN2-R on the motor ability of mice (n = 4). The rotarod test evaluated the drug's effect on motor coordination, the forced-swim test examined its impact on the overall motor system, and the open field test assessed the drug's influence on the motor and nervous systems.\nas §1, §2"}, "hNav1.3": {"target": "T3, hNav1.3 (Homo sapiens, UniProt Q9NY46)", "T3 construct": "expressed in transfected cells; host or cells: HEK293T", "test": "Subtype selectivity, patch clamp", "conditions": "1 μM", "description": "as §3, §1, §2"}, "hNav1.4": {"target": "T4, hNav1.4 (Homo sapiens, UniProt P35499)", "T4 construct": "expressed in transfected cells; host or cells: HEK293T", "test": "Subtype selectivity, patch clamp", "conditions": "read-out: Inhibitory rate on Nav1.4", "description": "as §3, §1, §2"}, "hNav1.5": {"target": "T5, hNav1.5 (Homo sapiens, UniProt Q14524)", "T5 construct": "expressed in transfected cells; host or cells: HEK293T", "test": "Subtype selectivity, patch clamp", "conditions": "read-out: Inhibitory rate on Nav1.5", "description": "as §3, §1, §2"}, "mNav1.6": {"target": "T6, mNav1.6 (Mus musculus, UniProt Q9WTU3)", "T6 construct": "expressed in transfected cells; host or cells: HEK293T", "test": "Subtype selectivity, patch clamp", "conditions": "1 μM", "description": "as §3, §1, §2"}},
  "data": [
    {"smiles": "Cc1ccc(Cn2cc([C@H](CC(=O)NCCN(C)C)c3ccc(F)cc3)c3ccccc32)cc1", "note": "[WN2-R]", "values": [
      {"measurement": "Activity of P1 relative to P2", "setting": "human Nav1.7 (hNav1.7); ratio of Nav1.7 IC50 values of the enantiomers", "value": 4.57, "unit": "times"},
      {"measurement": "IC50", "setting": "human Nav1.7 (hNav1.7); −80 mV holding, step to V1/2 of inactivation for 8 s, HEK293T", "value": "24.7 ± 9.4", "unit": "nM"},
      {"measurement": "Inhibitory rate on hNav1.2", "setting": "hNav1.2", "value": "much lower than that on Nav1.7"},
      {"measurement": "Inhibitory rate on hNav1.3", "setting": "hNav1.3", "value": "much lower than that on Nav1.7"},
      {"measurement": "inhibition at 1 µM", "setting": "hNav1.4", "value": 16.3, "unit": "%"},
      {"measurement": "inhibition at 1 µM", "setting": "hNav1.5", "value": 19.1, "unit": "%"},
      {"measurement": "Inhibitory rate on mNav1.6", "setting": "mNav1.6", "value": "much lower than that on Nav1.7"}
    ]}
  ]
}
